Experiment: mn = molality of the nth substance listed, in mol/kg
Settings: 101 kPa, Liquid

[Co+2].[O-][Cl+3]([O-])([O-])[O-].[O-][Cl+3]([O-])([O-])[O-] [cobalt(II) perchlorate] + C[S+](C)[O-]
mass density [kg/m3]
Settings	293.15 K	298.15 K	303.15 K	313.15 K	323.15 K	333.15 K
m1 = 0.01481	1103.37	1098.35	1093.34	1083.31	1073.29	1063.26
m1 = 0.0215	1104.79	1099.78	1094.77	1084.75	1074.74	1064.73
m1 = 0.03236	1107.1	1102.1	1097.1	1087.09	1077.1	1067.1
m1 = 0.04309	1109.4	1104.4	1099.41	1089.42	1079.44	1069.46
m1 = 0.05528	1112.02	1107.03	1102.04	1092.06	1082.1	1072.14
m1 = 0.06505	1114.13	1109.14	1104.15	1094.2	1084.25	1074.3
m1 = 0.08726	1118.94	1113.97	1109	1099.07	1089.15	1079.22
m1 = 0.1069	1123.24	1118.27	1113.31	1103.39	1093.51	1083.61
m1 = 0.1285	1127.98	1123.03	1118.08	1108.19	1098.33	1088.47
m1 = 0.148	1132.32	1127.38	1122.44	1112.57	1102.73	1092.9
m1 = 0.1695	1137.12	1132.18	1127.26	1117.42	1107.6	1097.8
m1 = 0.1911	1141.97	1137.05	1132.14	1122.33	1112.53	1102.76
m1 = 0.2111	1146.48	1141.57	1136.67	1126.88	1117.12	1107.38

[Cu+2].[O-][Cl+3]([O-])([O-])[O-].[O-][Cl+3]([O-])([O-])[O-] [copper perchlorate] + C[S+](C)[O-]
mass density [kg/m3]
Settings	293.15 K	298.15 K	303.15 K	313.15 K	323.15 K	333.15 K
m1 = 0.01424	1103.32	1098.31	1093.29	1083.26	1073.23	1063.21
m1 = 0.01956	1104.48	1099.47	1094.46	1084.44	1074.42	1064.4
m1 = 0.02779	1106.27	1101.26	1096.26	1086.25	1076.24	1066.24
m1 = 0.03497	1107.84	1102.83	1097.83	1087.83	1077.83	1067.84
m1 = 0.0419	1109.35	1104.35	1099.36	1089.37	1079.36	1069.38
m1 = 0.05636	1112.53	1107.54	1102.54	1092.57	1082.6	1072.64
m1 = 0.07067	1115.69	1110.7	1105.71	1095.76	1085.8	1075.85
m1 = 0.08366	1118.57	1113.58	1108.61	1098.65	1088.72	1078.79
m1 = 0.09783	1121.71	1116.73	1111.75	1101.83	1091.91	1082
m1 = 0.1114	1124.76	1119.78	1114.82	1104.9	1095	1085.1
m1 = 0.1251	1127.83	1122.85	1117.89	1108	1098.11	1088.23
m1 = 0.1384	1130.82	1125.85	1120.9	1111.02	1101.14	1091.28

Reference: the NIST ThermoML archive (doi:10.1021/je900732r)
